US20060069132A1, “Azolecarboxamide herbicides” (priority 2004, published 2006)
Like-named read-outs stand apart in the source and are kept apart here.

Columns and labels:
[1] = test system: large crabgrass; test: Test A pre-/postemergence herbicide test; format: in vivo, Digitaria sanguinalis; settings: for pest or weed control at 500 g/ha / pest or weed control at 2000 g/ha: Digitaria sanguinalis, 240 h
Method in brief: (§1)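 Both application timings were run together: directed soil spray over freshly planted seeds in sandy loam, and runoff spray onto 2–10 cm seedlings. Evaluation after ~10 days in greenhouse used a 0–100 visual scale versus untreated controls.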

[2] = test system: giant foxtail; test: Test A pre-/postemergence herbicide test; format: in vivo, Setaria faberi; settings: for pest or weed control at 500 g/ha / pest or weed control at 2000 g/ha: Setaria faberi, 240 h
Method in brief: as §1

[3] = test system: morningglory; test: Test A pre-/postemergence herbicide test; format: in vivo, Ipomoea spp.; settings: for pest or weed control at 500 g/ha / pest or weed control at 2000 g/ha: Ipomoea, 240 h
Method in brief: as §1

[4] = test system: ducksalad; test: Test C flooded paddy test; format: in vivo, Heteranthera limosa
[5] = test system: barnyardgrass; test: Test C flooded paddy test; format: in vivo, Echinochloa crus-galli
Method in brief: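 Greenhouse test with a 12–14 day hold after application and visual comparison with controls. Emerged plants were 1- to 4-leaf stage (2–18 cm) when sprayed postemergence, and the paddy barnyardgrass was at 2 leaves under flooded conditions. 100 = complete control.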

[6] = Postemergence, 500 g ai/ha, 0 to 100 scale, 0 no effect, 100 complete control
[7] = Postemergence, 2000 g ai/ha, 0 to 100 scale, 0 no effect, 100 complete control
[8] = Preemergence, 500 g ai/ha, visual rating, 0 to 100 scale (0 no effect, 100 complete control)
[9] = Preemergence, 2000 g ai/ha, 0 to 100 scale, 0 no effect, 100 complete control
[10] = 62 g ai/ha, scale 0 to 100 (0 no effect, 100 complete control)
[11] = 125 g ai/ha, scale of 0 to 100, 0 is no effect, 100 is complete control
[12] = 250 g ai/ha, scale of 0 to 100, 0 is no effect, 100 is complete control
[13] = 500 g ai/ha, visual rating after 12 to 14 days, scale 0 to 100 (0 no effect, 100 complete control)
[14] = Preemergence, 2000 g ai/ha, visual rating, 0 to 100 scale (0 no effect, 100 complete control)
[15] = preemergence, 500 g ai/ha, visual injury, 0 to 100 scale (0 no effect, 100 complete control)
[16] = 125 g ai/ha, scale 0 to 100 (0 no effect, 100 complete control)

Structure (SMILES)	Plant response rating, Crabgrass, Large [1, 7]	Crabgrass, Large plant response rating [1, 8]	Plant response rating, Foxtail, Giant [2, 7]	Foxtail, Giant plant response rating [2, 8]	Plant response rating, Morningglory [3, 7]	Morningglory plant response rating [3, 8]	Ducksalad plant response rating [4, 10]	Ducksalad plant response rating [4, 11]	Ducksalad plant response rating [4, 12]	Plant response rating, Ducksalad [4, 13]	Barnyardgrass plant response rating [5, 10]	Barnyardgrass plant response rating [5, 11]	Barnyardgrass plant response rating [5, 12]	Plant response rating, Barnyardgrass [5, 13]	Ducksalad plant response rating ([4]; 62 g ai/ha, scale 0 to 100)	Ducksalad plant response rating [4, 16]	Barnyardgrass plant response rating [5, 16]	further results
CCn1nc(C(C)(C)C)cc1C(=O)Nc1cccc(C(=O)NCC(F)(F)F)c1 [Compound 43, 3-(1,1-dimethylethyl)-1-ethyl-N-[3-[[(2,2,2-trifluoroethyl)amino]carbonyl]-phenyl]-1H-pyrazole-5-carboxamide]	–	–	–	–	–	–	–	–	–	–	–	–	–	–	–	–	–	pest or weed control at 500 g/ha ([1]; post-emergence, Postemergence, 500 g ai/ha, 0 to 100 scale, 0 no effect, 100 complete control, read-out: Plant response rating, Crabgrass, Large): 65%; pest or weed control at 2000 g/ha ([1]; post-emergence, Postemergence, 2000 g ai/ha, 0 to 100 scale, 0 no effect, 100 complete control, read-out: Plant response rating, Crabgrass, Large): 90%; pest or weed control at 500 g/ha ([1]; pre-emergence, Preemergence, 500 g ai/ha, visual rating, 0 to 100 scale (0 no effect, 100 complete control), read-out: Crabgrass, Large plant response rating): 75%; pest or weed control at 2000 g/ha ([1]; pre-emergence, Preemergence, 2000 g ai/ha, 0 to 100 scale, 0 no effect, 100 complete control, read-out: Crabgrass, Large plant response rating): 90%; pest or weed control at 500 g/ha ([2]; post-emergence, Postemergence, 500 g ai/ha, 0 to 100 scale, 0 no effect, 100 complete control, read-out: Plant response rating, Foxtail, Giant): 70%; pest or weed control at 2000 g/ha ([2]; post-emergence, Postemergence, 2000 g ai/ha, 0 to 100 scale, 0 no effect, 100 complete control, read-out: Plant response rating, Foxtail, Giant): 70%; pest or weed control at 500 g/ha ([2]; pre-emergence, Preemergence, 500 g ai/ha, visual rating, 0 to 100 scale (0 no effect, 100 complete control), read-out: Foxtail, Giant plant response rating): 55%; pest or weed control at 2000 g/ha ([2]; pre-emergence, Preemergence, 2000 g ai/ha, 0 to 100 scale, 0 no effect, 100 complete control, read-out: Foxtail, Giant plant response rating): 100%; pest or weed control at 500 g/ha ([3]; post-emergence, Postemergence, 500 g ai/ha, 0 to 100 scale, 0 no effect, 100 complete control, read-out: Plant response rating, Morningglory): 20%; pest or weed control at 2000 g/ha ([3]; post-emergence, Postemergence, 2000 g ai/ha, 0 to 100 scale, 0 no effect, 100 complete control, read-out: Plant response rating, Morningglory): 30%; pest or weed control at 500 g/ha ([3]; pre-emergence, Preemergence, 500 g ai/ha, visual rating, 0 to 100 scale (0 no effect, 100 complete control), read-out: Morningglory plant response rating): 10%; pest or weed control at 2000 g/ha ([3]; pre-emergence, Preemergence, 2000 g ai/ha, 0 to 100 scale, 0 no effect, 100 complete control, read-out: Morningglory plant response rating): 40%; pest or weed control at 62 g/ha ([4]; Heteranthera limosa, 62 g ai/ha, scale 0 to 100 (0 no effect, 100 complete control), read-out: Ducksalad plant response rating): 0%; pest or weed control at 125 g/ha ([4]; Heteranthera limosa, 125 g ai/ha, scale of 0 to 100, 0 is no effect, 100 is complete control, read-out: Ducksalad plant response rating): 0%; pest or weed control at 250 g/ha ([4]; Heteranthera limosa, 250 g ai/ha, visual rating after 12 to 14 days, scale 0 to 100 (0 no effect, 100 complete control), read-out: Plant response rating, Ducksalad): 60%; pest or weed control at 500 g/ha ([4]; Heteranthera limosa, 500 g ai/ha, visual rating after 12 to 14 days, scale 0 to 100 (0 no effect, 100 complete control), read-out: Plant response rating, Ducksalad): 70%; pest or weed control at 62 g/ha ([5]; Echinochloa crus-galli, 62 g ai/ha, scale 0 to 100 (0 no effect, 100 complete control), read-out: Barnyardgrass plant response rating): 0%; pest or weed control at 125 g/ha ([5]; Echinochloa crus-galli, 125 g ai/ha, scale of 0 to 100, 0 is no effect, 100 is complete control, read-out: Barnyardgrass plant response rating): 0%; pest or weed control at 250 g/ha ([5]; Echinochloa crus-galli, 250 g ai/ha, visual rating after 12 to 14 days, scale 0 to 100 (0 no effect, 100 complete control), read-out: Plant response rating, Barnyardgrass): 40%; pest or weed control at 500 g/ha ([5]; Echinochloa crus-galli, 500 g ai/ha, visual rating after 12 to 14 days, scale 0 to 100 (0 no effect, 100 complete control), read-out: Plant response rating, Barnyardgrass): 50%
CCn1nc(C(C)(C)C)cc1C(=O)Nc1cccc(C(=O)NOC)c1 [Compound 67]	20	15	20	0	20	0	30	30	40	40	0	0	10	25	–	–	–	Plant response rating, Crabgrass, Large [1, 6]: 20; Crabgrass, Large plant response rating [1, 9]: 55; Plant response rating, Foxtail, Giant [2, 6]: 10; Foxtail, Giant plant response rating [2, 9]: 30; Plant response rating, Morningglory [3, 6]: 5; Morningglory plant response rating [3, 9]: 30
CCOC(=O)c1cccc(NC(=O)c2cc(C(C)(C)C)nn2CCF)c1 [Compound 79]	55	50	40	10	25	20	0	0	15	55	10	25	25	80	–	–	–	Plant response rating, Crabgrass, Large [1, 6]: 20; Crabgrass, Large plant response rating [1, 9]: 55; Plant response rating, Foxtail, Giant [2, 6]: 30; Foxtail, Giant plant response rating [2, 9]: 40; Plant response rating, Morningglory [3, 6]: 15; Morningglory plant response rating [3, 9]: 60
C=CCn1nc(C(C)(C)C)cc1C(=O)Nc1cccc(C(C)=NO)c1 [Compound 117]	65	45	55	25	70	45	0	0	0	60	10	20	50	50	–	–	–	Crabgrass, Large plant response rating [1, 6]: 40; Crabgrass, Large plant response rating [1, 14]: 75; Foxtail, Giant plant response rating [2, 6]: 35; Foxtail, Giant plant response rating [2, 14]: 60; Morningglory plant response rating [3, 6]: 20; Morningglory plant response rating [3, 14]: 75
CCn1nc(C(C)(C)C)cc1C(=O)Nc1cccc(OC(C)C)c1 [Compound 273]	65	–	70	–	75	–	–	–	75	75	20	–	60	70	20	50	40	Crabgrass, Large plant response rating [1, 6]: 25; Crabgrass, Large plant response rating [1, 14]: 100; Crabgrass, Large plant response rating [1, 15]: 75; Foxtail, Giant plant response rating [2, 6]: 50; Foxtail, Giant plant response rating [2, 14]: 100; Foxtail, Giant plant response rating [2, 15]: 85; Morningglory plant response rating [3, 6]: 70; Morningglory plant response rating [3, 14]: 80; Morningglory plant response rating [3, 15]: 45
C#CCNC(=O)c1cccc(NC(=O)c2nn(C(C)(C)C)nc2CC)c1 [Compound 380]	–	–	–	–	–	–	–	–	75	85	35	–	65	70	25	50	45	–
C#CCOc1cccc(NC(=O)c2cc(C(C)(C)C)nn2CC)c1 [Compound 411]	–	–	–	–	–	–	–	–	70	80	15	–	40	45	25	50	25	–
C=CCOc1cccc(NC(=O)c2cc(C(C)(C)C)nn2CC)c1 [Compound 412]	–	–	–	–	–	–	–	–	60	90	0	–	35	45	0	30	20	–
